Experimental data: PubChem BioAssay AID248 (DTP/NCI, 2004)
Where “and” joins values, the source holds several entries; their conditions need not be identical. Equal entries are not always repeated. Toxic doses and inconclusive results are not listed.

Test system: L1210 leukemia ip in BDF1 mice, survival T/C
Assay: NCI In Vivo Anticancer Drug Screen. Data for tumor model L1210 Leukemia (intraperitoneal) in B6D2F1 (BDF1) mice
Conditions: endpoint: mean survival time, higher = longer survival
How it was run: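 Mice bearing the transplanted tumor received compound or vehicle. Survival of the treated group was divided by that of the vehicle-treated control group to give the ratio.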

[1] = dose: 100.0 mg/kg/injection, schedule: Q01DX001 (ip), vehicle: carboxymethylcellulose (CMC)
[2] = dose: 100.0 mg/kg/injection, schedule: Q01DX009 (ip), vehicle: Klucel (hydroxypropylcellulose) (HPC)
[3] = dose: 200.0 mg/kg/injection, schedule: Q01DX009 (ip), vehicle: Klucel (hydroxypropylcellulose) (HPC)
[4] = dose: 400.0 mg/kg/injection, schedule: Q01DX009 (ip), vehicle: Klucel (hydroxypropylcellulose) (HPC)
[5] = dose: 100.0 mg/kg/injection, schedule: Q04DX002 (ip), vehicle: Klucel (hydroxypropylcellulose) (HPC)
[6] = dose: 200.0 mg/kg/injection, schedule: Q04DX002 (ip), vehicle: Klucel (hydroxypropylcellulose) (HPC)
[7] = dose: 100.0 mg/kg/injection, schedule: Q01DX001 (ip), vehicle: saline
[8] = dose: 200.0 mg/kg/injection, schedule: Q01DX001 (ip), vehicle: saline
[9] = dose: 400.0 mg/kg/injection, schedule: Q01DX001 (ip), vehicle: saline

N#C/C(=C\C=C\c1ccccc1)c1cccc(Cl)c1
T/C (dose: 87.5 mg/kg/injection, schedule: Q01DX009 (ip), vehicle: Klucel (hydroxypropylcellulose) (HPC)): 89 % of control
T/C (dose: 175.0 mg/kg/injection, schedule: Q01DX009 (ip), vehicle: Klucel (hydroxypropylcellulose) (HPC)): 92 % of control
T/C (dose: 350.0 mg/kg/injection, schedule: Q01DX009 (ip), vehicle: Klucel (hydroxypropylcellulose) (HPC)): 101 % of control

COc1cc(C(=O)N2CCOC23CCN(Cc2ccccc2)CC3)cc(OC)c1OC
T/C (dose: 100.0 mg/kg/injection, schedule: Q01DX009 (ip), vehicle: saline with Tween-80): 95 % of control
T/C (dose: 100.0 mg/kg/injection, schedule: Q04DX003 (ip), vehicle: saline with Tween-80): 102 % of control
T/C (dose: 200.0 mg/kg/injection, schedule: Q01DX009 (ip), vehicle: saline with Tween-80): 90 % of control
T/C (dose: 200.0 mg/kg/injection, schedule: Q04DX003 (ip), vehicle: saline with Tween-80): 100 % of control
T/C (dose: 400.0 mg/kg/injection, schedule: Q04DX003 (ip), vehicle: saline with Tween-80): 100 % of control

O=P(N1CC1)(N1CC1)N(CCCCN(Cc1ccccc1)P(=O)(N1CC1)N1CC1)Cc1ccccc1
T/C (dose: 10.0 mg/kg/injection, schedule: Q01DX001 (ip), vehicle: carboxymethylcellulose (CMC)): 104 % of control
T/C (dose: 20.0 mg/kg/injection, schedule: Q01DX001 (ip), vehicle: carboxymethylcellulose (CMC)): 101 % of control
T/C (dose: 40.0 mg/kg/injection, schedule: Q01DX001 (ip), vehicle: carboxymethylcellulose (CMC)): 104 % of control
T/C (dose: 80.0 mg/kg/injection, schedule: Q01DX001 (ip), vehicle: carboxymethylcellulose (CMC)): 106 % of control
T/C [1]: 92 % of control

c1cc(-n2nnc3cnccc32)ccn1
T/C (dose: 6.25 mg/kg/injection, schedule: Q04DX003 (ip), vehicle: saline): 100 % of control
T/C (dose: 12.5 mg/kg/injection, schedule: Q04DX003 (ip), vehicle: saline): 91 % of control
T/C (dose: 25.0 mg/kg/injection, schedule: Q04DX003 (ip), vehicle: saline): 102 % of control
T/C (dose: 100.0 mg/kg/injection, schedule: Q04DX003 (ip), vehicle: saline): 86 % of control

C(=N\OCCc1ccccc1)/c1cccnc1
T/C (dose: 100.0 mg/kg/injection, schedule: Q01DX009 (ip), vehicle: saline sonified): 98 % of control
T/C (dose: 200.0 mg/kg/injection, schedule: Q01DX009 (ip), vehicle: saline sonified): 100 % of control
T/C (dose: 400.0 mg/kg/injection, schedule: Q01DX009 (ip), vehicle: saline sonified): 102 % of control

COc1c(C)cc(Br)c2c1C(CCN(C)S(=O)(=O)Cc1ccccc1)CCC2 (stereo not given)
T/C [2]: 95 % of control
T/C (dose: 100.0 mg/kg/injection, schedule: Q04DX003 (ip), vehicle: Klucel (hydroxypropylcellulose) (HPC)): 96 % of control
T/C [3]: 89 % of control
T/C (dose: 200.0 mg/kg/injection, schedule: Q04DX003 (ip), vehicle: Klucel (hydroxypropylcellulose) (HPC)): 98 % of control
T/C [4]: 93 % of control
T/C (dose: 400.0 mg/kg/injection, schedule: Q04DX003 (ip), vehicle: Klucel (hydroxypropylcellulose) (HPC)): 91 % of control

O=C(O)c1ccc(C(=O)O)c(C(=O)O)c1.[NH-]C1CCCCC1[NH-].[Pt+2]
T/C (dose: 1.6 mg/kg/injection, schedule: Q01DX009 (ip), vehicle: sodium bicarbonate): 198 % of control
T/C (dose: 3.2 mg/kg/injection, schedule: Q01DX009 (ip), vehicle: sodium bicarbonate): 256 % of control
T/C (dose: 3.3 mg/kg/injection, schedule: Q01DX009 (ip), vehicle: saline): 187 % of control
T/C (dose: 4.8 mg/kg/injection, schedule: Q01DX009 (ip), vehicle: sodium bicarbonate): 250 % of control
T/C (dose: 6.4 mg/kg/injection, schedule: Q01DX009 (ip), vehicle: sodium bicarbonate): 179 % of control
T/C (dose: 6.5 mg/kg/injection, schedule: Q01DX001 (ip), vehicle: saline): 112 % of control
T/C (dose: 6.5 mg/kg/injection, schedule: Q01DX009 (ip), vehicle: saline): 194 % of control
T/C (dose: 13.0 mg/kg/injection, schedule: Q01DX001 (ip), vehicle: saline): 115 % of control
T/C (dose: 13.0 mg/kg/injection, schedule: Q01DX009 (ip), vehicle: saline): 152 % of control
T/C (dose: 20.0 mg/kg/injection, schedule: Q01DX001 (ip), vehicle: sodium bicarbonate): 220 % of control
T/C (dose: 26.0 mg/kg/injection, schedule: Q01DX009 (ip), vehicle: saline): 102 % of control
T/C (dose: 40.0 mg/kg/injection, schedule: Q01DX001 (ip), vehicle: sodium bicarbonate): 205 % of control

Cc1nc2c(C(N)=O)nc(C)n2nc1C
T/C (dose: 50.0 mg/kg/injection, schedule: Q04DX002 (ip), vehicle: saline with Tween-80): 93 % of control
T/C (dose: 100.0 mg/kg/injection, schedule: Q01DX001 (ip), vehicle: saline with Tween-80): 103 % of control
T/C (dose: 100.0 mg/kg/injection, schedule: Q04DX002 (ip), vehicle: saline with Tween-80): 105 % of control and 107 % of control
T/C (dose: 200.0 mg/kg/injection, schedule: Q01DX001 (ip), vehicle: saline with Tween-80): 106 % of control
T/C (dose: 200.0 mg/kg/injection, schedule: Q04DX002 (ip), vehicle: saline with Tween-80): 121 % of control
T/C (dose: 400.0 mg/kg/injection, schedule: Q01DX001 (ip), vehicle: saline with Tween-80): 111 % of control
T/C (dose: 400.0 mg/kg/injection, schedule: Q04DX002 (ip), vehicle: saline with Tween-80): 99 % of control
T/C (dose: 600.0 mg/kg/injection, schedule: Q01DX001 (ip), vehicle: saline with Tween-80): 110 % of control

O=C1c2cccc3c([N+](=O)[O-])ccc(c23)C(=O)N1Cc1cccnc1
T/C (dose: 25.0 mg/kg/injection, schedule: Q04DX002 (ip), vehicle: Klucel (hydroxypropylcellulose) (HPC)): 106 % of control
T/C (dose: 50.0 mg/kg/injection, schedule: Q04DX002 (ip), vehicle: Klucel (hydroxypropylcellulose) (HPC)): 100 % of control
T/C [5]: 103 % of control and 86 % of control
T/C [6]: 101 % of control

CC(=O)Nc1cccc(C)c1C
T/C [5]: 107 % of control
T/C [6]: 100 % of control
T/C (dose: 400.0 mg/kg/injection, schedule: Q04DX002 (ip), vehicle: Klucel (hydroxypropylcellulose) (HPC)): 103 % of control

CCOC(=O)CC(O)(COC)c1ccccc1 (stereo not given)
T/C (dose: 50.0 mg/kg/injection, schedule: Q01DX001 (ip), vehicle: saline): 114 % of control
T/C [7]: 100 % of control
T/C [8]: 109 % of control
T/C [9]: 97 % of control

O=C(CCO)Nc1cccc(Cl)c1
T/C (dose: 100.0 mg/kg/injection, schedule: Q01DX001 (ip), vehicle: Klucel (hydroxypropylcellulose) (HPC)): 98 % of control
T/C [2]: 93 % of control
T/C (dose: 200.0 mg/kg/injection, schedule: Q01DX001 (ip), vehicle: Klucel (hydroxypropylcellulose) (HPC)): 101 % of control
T/C [3]: 88 % of control
T/C (dose: 400.0 mg/kg/injection, schedule: Q01DX001 (ip), vehicle: Klucel (hydroxypropylcellulose) (HPC)): 91 % of control
T/C [4]: 92 % of control

Cc1ccc(C(=O)OCC2OC(OC3CC(OC(=O)c4ccc(C)cc4)C(COC(=O)c4ccc(C)cc4)O3)CC2OC(=O)c2ccc(C)cc2)cc1 (stereo not given)
T/C (dose: 50.0 mg/kg/injection, schedule: Q01DX001 (ip), vehicle: carboxymethylcellulose (CMC)): 101 % of control
T/C [1]: 87 % of control
T/C (dose: 200.0 mg/kg/injection, schedule: Q01DX001 (ip), vehicle: carboxymethylcellulose (CMC)): 101 % of control
T/C (dose: 400.0 mg/kg/injection, schedule: Q01DX001 (ip), vehicle: carboxymethylcellulose (CMC)): 97 % of control

CN(C)S(=O)(=O)c1ccc(NC(=O)OC2CCCCCCC2)cc1
T/C [7]: 96 % of control
T/C [8]: 94 % of control
T/C [9]: 89 % of control
